The nature of experiment [1]: specific detection of 20 amino acids by arginine fluorescent sensors. The following applies: FIG. 8. The class given is biochemical.
Experiment [2] deals with T1, STM4351-104/110-cpYFP, SEQ ID NO: 7 (arginine-binding protein STM4351 derived from Salmonella Typhimurium, SEQ ID NO: 1) (Salmonella enterica, UniProt Q8ZKA9, DELINS105-109[…]).
T1 construct: His-tag, pET28a, E. coli JM109(DE3), purified
Briefly: fluorescence spectra of sensor with and without arginine. The format is biochemical. The following applies: 500 mM vs 0 mM arginine. Here is the method:
(§1) • 1. The pET28a based arginine sensor plasmid was transformed into JM109 (DE3), incubated inverted overnight, and the clones were picked from the plates into 250 ml Erlenmeyer flasks, placed in a shaker at 37° C. and incubated at 220 rpm to OD=0.4-0.8, then 1/1000 (V/V) of IPTG (1 M) was added to induce expression at 18° C. for 24-36 h. • 2. Upon completion of inducible expression, cells were harvested by centrifugation at 4000 rpm for 30 min, resuspended in 50 mM phosphate buffer and disrupted ultrasonically until the broth were clear, centrifuged at 9600 rpm at 4° C. for 20 min. • 3. […] 100 μl 5 μM of protein solution was taken, incubated at 37° C. for 5 min, arginine was added to mix to a final concentration of 100 mM, respectively, the optical absorption of the protein at 340 nm was determined using a multifunctional fluorescence microplate reader. • 6. 100 μl 1 μM of fluorescent sensor solution was taken, incubated at 37° C. for 5 min, arginine was added for titration, and the fluorescence intensity of 528 nm emission after 485 nm fluorescence excitation of the protein was measured. The fluorescence excitation and emission determination of the samples were done using a multifunctional fluorescence microplate reader. • 7. […] Determination of the absorption and fluorescence spectra of the samples was done by spectrophotometer and spectrofluorometer. […]

In experiment [3] the target is T2, STM4351-cpYFP fusion protein, insertion site 200/203, SEQ ID NO: 27 (arginine-binding protein STM4351 derived from Salmonella Typhimurium, SEQ ID NO: 1) (Salmonella enterica, UniProt Q8ZKA9, DELINS201-202[…]).
T2 construct: His-tag, pET28a, E. coli JM109(DE3), purified
Briefly: concentration gradient arginine detection (fluorescence ratio titration). Here is the method: (§2) • 1. The pET28a based arginine sensor plasmid was transformed into JM109 (DE3), incubated inverted overnight, and the clones were picked from the plates into 250 ml Erlenmeyer flasks, placed in a shaker at 37° C. and incubated at 220 rpm to OD=0.4-0.8, then 1/1000 (V/V) of IPTG (1 M) was added to induce expression at 18° C. for 24-36 h. • 2. Upon completion of inducible expression, cells were harvested by centrifugation at 4000 rpm for 30 min, resuspended in 50 mM phosphate buffer and disrupted ultrasonically until the broth were clear, centrifuged at 9600 rpm at 4° C. for 20 min. • 3. The centrifuged supernatant was used to obtain protein by purification through a self packed nickel column affinity chromatography column, and the protein obtained after nickel column affinity chromatography was further used to obtain protein dissolved in 20 mM MOPS buffer (pH 7.4) or phosphate buffer PBS. • 4. After purified arginine-binding protein muteins were subjected to SDS-PAGE, sensors were diluted to a protein solution having a final concentration of 5-10 μM using assay buffer (100 mm HEPES, 100 mM NaCl, pH 7.3) or phosphate buffer PBS. Arginine was formulated as a stock solution at a final concentration of 1 M with assay buffer (20 mM MOPS, pH 7.4) or phosphate buffer PBS. • 5. 100 μl 5 μM of protein solution was taken, incubated at 37° C. for 5 min, arginine was added to mix to a final concentration of 100 mM, respectively, the optical absorption of the protein at 340 nm was determined using a multifunctional fluorescence microplate reader. • 6. 100 μl 1 μM of fluorescent sensor solution was taken, incubated at 37° C. for 5 min, arginine was added for titration, and the fluorescence intensity of 528 nm emission after 485 nm fluorescence excitation of the protein was measured. The fluorescence excitation and emission determination of the samples were done using a multifunctional fluorescence microplate reader. • 7. 100 μl 1 μM of fluorescent sensor solution was taken, incubated at 37° C. for 5 min, and arginine was added to determine the absorption and fluorescence spectra of the sensor proteins. Determination of the absorption and fluorescence spectra of the samples was done by spectrophotometer and spectrofluorometer.

Experiment [4] deals with T3, STM4351-cpYFP fusion protein, insertion site 199/200, SEQ ID NO: 22 (arginine-binding protein STM4351 derived from Salmonella Typhimurium, SEQ ID NO: 1) (Salmonella enterica, UniProt Q8ZKA9, INS199[…]).
T3 construct: His-tag, pET28a, E. coli JM109(DE3), purified
Described as above. As for the experimental part: as §2

In experiment [5] the target is T4, STM4351-cpYFP fusion protein, insertion site 105/110, SEQ ID NO: 11 (arginine-binding protein STM4351 derived from Salmonella Typhimurium, SEQ ID NO: 1) (Salmonella enterica, UniProt Q8ZKA9, DELINS107-109[…]).
T4 construct: His-tag, pET28a, E. coli JM109(DE3), purified
Described as above. As for the experimental part:
as §2

Experiment [6] concerns the target T5, STM4351-cpYFP fusion protein, insertion site 200/205, SEQ ID NO: 29 (arginine-binding protein STM4351 derived from Salmonella Typhimurium, SEQ ID NO: 1) (Salmonella enterica, UniProt Q8ZKA9, DELINS201-204[…]).
T5 construct: His-tag, pET28a, E. coli JM109(DE3), purified
Described as above. As for the experimental part: as §2

Experiment [7] deals with T2, STM4351-cpYFP fusion protein, insertion site 200/203, SEQ ID NO: 27 (arginine-binding protein STM4351 derived from Salmonella Typhimurium, SEQ ID NO: 1). Put plainly: screening of purified fusion protein for arginine response. The class given is biochemical. The following applies: cpYFP at 200/203; 100 mM arginine vs without arginine. Here is the method: as §2
In experiment [8] the target is T3, STM4351-cpYFP fusion protein, insertion site 199/200, SEQ ID NO: 22 (arginine-binding protein STM4351 derived from Salmonella Typhimurium, SEQ ID NO: 1). The experiment is described as above. The class given is biochemical. The settings on record: cpYFP at 199/200; 100 mM arginine vs without arginine. Here is the method: as §2
The target of experiment [9] is T4, STM4351-cpYFP fusion protein, insertion site 105/110, SEQ ID NO: 11 (arginine-binding protein STM4351 derived from Salmonella Typhimurium, SEQ ID NO: 1). Described as above. The class given is biochemical. The settings on record: cpYFP at 105/110; 100 mM arginine vs without arginine. As for the experimental part:
as §2

In experiment [10] the target is T5, STM4351-cpYFP fusion protein, insertion site 200/205, SEQ ID NO: 29 (arginine-binding protein STM4351 derived from Salmonella Typhimurium, SEQ ID NO: 1). The experiment is described as above. The settings on record: cpYFP at 200/205; 100 mM arginine vs without arginine. The class given is biochemical. As for the experimental part:
as §2

In experiment [11] the target is T6, STM4351-cpYFP fusion protein, insertion site 107/111, SEQ ID NO: 15 (arginine-binding protein STM4351 derived from Salmonella Typhimurium, SEQ ID NO: 1) (Salmonella enterica, UniProt Q8ZKA9, DELINS108-110[…]).
T6 construct: His-tag, pET28a, E. coli JM109(DE3), purified
Described as above. The class given is biochemical. The following applies: cpYFP at 107/111; 100 mM arginine vs without arginine. Here is the method: as §2

For experiment [12], the target named is T7, STM4351-cpYFP fusion protein, insertion site 104/110, SEQ ID NO: 7 (arginine-binding protein STM4351 derived from Salmonella Typhimurium, SEQ ID NO: 1) (Salmonella enterica, UniProt Q8ZKA9, DELINS105-109[…]).
T7 construct: His-tag, pET28a, E. coli JM109(DE3), purified
Described as above. The format is biochemical. The settings on record: cpYFP at 104/110; 100 mM arginine vs without arginine. Here is the method: as §2

In experiment [13] the target is T8, STM4351-199/200-cpYFP, SEQ ID NO: 22, expressed in the cytosol of HeLa cells (arginine-binding protein STM4351 derived from Salmonella Typhimurium, SEQ ID NO: 1 (Salmonella enterica, UniProt Q8ZKA9, INS199[…]).
T8 construct: expressed in cytosol of HeLa cells from pAAV plasmid
Briefly: dynamic monitoring of arginine transmembrane transport in HeLa cells. The class given is cell-based. The settings on record: after 2 hours of starvation, 10 mM arginine, 20 minutes. As for the experimental part:
• 1. PAAV-based arginine optical sensor plasmids were transfected into HeLa by using the transfection reagent Lipofectamine2000 (Invitrogen) and incubated in a cell incubator at 37° C. with 5% CO2. After the exogenous gene was fully expressed for 24˜36 hours, the fluorescence detection was performed. • 2. After induction of expression, adherent HeLa cells were washed three times with PBS and placed in HMS solution for fluorescence microscopy and microplate reader assays, respectively.
36 hours after transfection of HeLa cells with plasmids encoding cytosolically expressed optical sensor STM4351-199/200-cpYFP, cells were rinsed using PBS, placed in HMS solution, and then changes in the ratio of the fluorescence intensity at 528 nm emission excited at 420 nm to that at 528 nm emission excited at 485 nm were detected over 40 min. After 2 hours of starvation, the ratio 485/420 increased gradually after adding 10 mM arginine for 20 minutes, and the highest ratio was 2.2 times. Same as STM4351-105/110-cpYFP sensor and STM4351-200/203-cpYFP sensor.

Experiment [14] deals with T9, STM4351-107/111-cpYFP variant S30N, SEQ ID NO: 40 (arginine-binding protein STM4351 derived from Salmonella Typhimurium) (Salmonella enterica, UniProt Q8ZKA9, DELINS108-110[…]/S30N).
T9 construct: His-tag, pET28a, E. coli JM109(DE3), purified
Briefly: fluorescence detection of mutated cpYFP optical sensor. The settings on record: S30N-107/111; detected according to Example 2. The format is biochemical. Here is the method: as §1

The target in experiment [15] is T10, STM4351-107/111-cpYFP variant D177N, SEQ ID NO: 41 (arginine-binding protein STM4351 derived from Salmonella Typhimurium) (Salmonella enterica, UniProt Q8ZKA9, D177N/DELINS108-110[…]).
T10 construct: His-tag, pET28a, E. coli JM109(DE3), purified
The description is as above. The settings on record: D177N-107/111; detected according to Example 2. The class given is biochemical. Here is the method: as §1

Here are results for 2 compounds from patent US20230296616A1, “ARGININE FLUORESCENT PROBE, PREPARATION METHOD THEREFOR AND APPLICATION THEREOF” (East China University of Science and Technology, priority 2020, published 2023).

With “199/201: arginine sensor: cpYFP inserted at site 199/201 of STM4351”, the specificity for arginine result in [1] is recorded as “good specificity for arginine”.

For the compound `N=C(N)NCCC[C@H](N)C(=O)O` [arginine], in experiment [2] (excited at 420 nm), the “decrease of fluorescence intensity excited at 420 nm” value is 1.4 times. Further, the “increase in fluorescence intensity under excitation at 485 nm” value in experiment [2] (excited at 485 nm) is 2.0 fold. Also, the change amplitude in [3] is recorded as 8.6 times; in experiment [4], 11.0 times; in experiment [5], 4.3 times; in [6], 3.0 times. Further, the “response to arginine relative to control” value in experiment [7], in experiment [8], in experiment [9], in [10], in experiment [11] and in [12] was “more than 2 fold” throughout. For the same compound, the “response to arginine relative to control” value in experiment [14] and in [15] was “more than 3 times” each time. Further, in experiment [13], the “highest ratio 485/420” value is 2.2 times.
